In patent US20240369536A1, “A CELL BASED TEST TO MONITOR DMARD DRUG RESPONSE” (UNIVERSITY OF ULSTER, priority 2021, published 2024):
“Also recorded” adds a separate entry of the source.

Columns and labels:
[1] = tested on: CD4+CD25+CD127− Treg cells; test: FACS analysis of CD4, NFκB and FoxP3 in expanded Tregs stimulated with PMA with or without Sia; format: cell-based, human
Text: PBMCs were labelled with antibodies (Becton Dickinson®, UK) against CD3, CD4, CD25, CD45, CD45RA, CD127 and CD43 antigens according to the manufacturer's instructions to assess relative Treg numbers. When FoxP3 and nuclear factor kappa-light-chain-enhancer of activated B cells (NFκB) antibody labelling was required, cells were pretreated with a lymphocyte membrane permeabilising solution (BD FACS™ Permeabilizing solution 2; Becton Dickinson®, UK). For monocyte analysis, cells were firstly enriched using a pan monocyte isolation kit and benchtop magnetic cell sorting device (autoMACS Pro separator; Miltenyi Biotec®). Enriched monocytes were labelled with antibodies (Becton Dickinson®, UK) against CD14, CD16 and CD169 antigens. Cell populations were analysed using fluorescence-activated cell sorting (FACS) in a flow cytometer with sorting capability (FACSAria™ III; Becton Dickinson, UK) with appropriate flow cytometer software (BD FACSDiva™ software version 8.0.1; Becton Dickinson, UK). Negative controls including unlabelled cells and isotype matched control antibodies were used to determine gating strategies. The positivity of a specific cell surface marker in labelled samples compared to the negative control was analysed as a percentage of the parent population. The median fluorescence intensity (MFI), indicating cell surface density of a specific marker, was also noted for cell populations. Mann Whitney tests were used to assess the statistical significance of differences between sample groups and graphs depict median values with error bars representing the interquartile range.
CD4^+CD25^+CD127^− Treg cells were sorted by FACS into phosphate buffered saline (PBS) containing 20% AB serum (Sigma-Aldrich®, UK), then washed and resuspended in serum-free cell culture medium (TexsMACS™ medium; Miltenyi Biotec®, UK), supplemented with 5% AB serum (Sigma-Aldrich®, UK), 1% Penicillin-Streptomycin (Gibco®, Ireland) and human IL-2 (Miltenyi Biotec®, UK). Trypan blue (Sigma-Aldrich®, UK) was used to ensure cell viability after sorting was >90-95%. A human Treg expansion kit (Miltenyi Biotec, UK) was used to induce Treg proliferation in order to expand the population to sufficient cell numbers for experiments. Following 14 days of expansion, Tregs were stimulated with 10 ng/ml phorbol 12-myristate 13-acetate (PMA) (Sigma-Aldrich®, UK) and 500 ng/ml ionomycin (10) (Invitrogen®) for 24 hours. During the same 24-hour stimulation, Tregs were incubated with or without 10 mM sialic acid (Sia) (Sigma-Aldrich®, UK). […] Cell culture conditioned media was retained and analysed for secreted cytokine levels by enzyme-linked immunosorbent assay (ELISA), described below. […]

[2] = tested on: CD4+CD25+CD127− Treg cells; test: ELISA of secreted cytokines (TNFα, IL-10, IFNγ) in conditioned media of Treg cultures; format: cell-based, human; conditions: PMA relative to controls
Text: CD4^+CD25^+CD127^− Treg cells were sorted by FACS into phosphate buffered saline (PBS) containing 20% AB serum (Sigma-Aldrich®, UK), then washed and resuspended in serum-free cell culture medium (TexsMACS™ medium; Miltenyi Biotec®, UK), supplemented with 5% AB serum (Sigma-Aldrich®, UK), 1% Penicillin-Streptomycin (Gibco®, Ireland) and human IL-2 (Miltenyi Biotec®, UK). Trypan blue (Sigma-Aldrich®, UK) was used to ensure cell viability after sorting was >90-95%. A human Treg expansion kit (Miltenyi Biotec, UK) was used to induce Treg proliferation in order to expand the population to sufficient cell numbers for experiments. Following 14 days of expansion, Tregs were stimulated with 10 ng/ml phorbol 12-myristate 13-acetate (PMA) (Sigma-Aldrich®, UK) and 500 ng/ml ionomycin (10) (Invitrogen®) for 24 hours. During the same 24-hour stimulation, Tregs were incubated with or without 10 mM sialic acid (Sia) (Sigma-Aldrich®, UK). At baseline, 24 hr and 48 hr time points (Day 0, Day 1 and Day 2), cells were removed from culture and labelled prior to FACS analysis of extracellular markers CD4, CD25, CD127 and CD43, and intracellular markers NFκB and FoxP3. Cell culture conditioned media was retained and analysed for secreted cytokine levels by enzyme-linked immunosorbent assay (ELISA), described below. A preliminary experiment included a Day 2 time-point, however latter experiments were concluded at the Day 1 time-point as this was sufficient to observe Sia treatment effects. […]
Following cell culture experiments, conditioned media were analysed to quantify TNFα, IL-10 and IFN-γ by ELISA using appropriate ELISA reagent kits (DuoSet® ELISA development kits; R&D Systems®, UK) according to the manufacturer's instructions. The optical density (OD) was determined using a spectrophotometer (Epoch™ microplate spectrophotometer; BioTek® Ltd, UK) with appropriate software (Gen5™; BioTek® Ltd, UK). The plate was read at a wavelength of 450 nm and wavelength correction of OD at 540 nm used. […]

Row | SMILES | CD4 cell-surface expression (percentage of CD4 positivity) ([1]; 10 ng/ml PMA + 500 ng/ml ionomycin, compared to CTL cells without stimulation) | percentage of cells with intracellular expression of FoxP3 ([1]; PMA stimulation, both CD43+ and CD43− Tregs, each time point, p<0.01) | percentage of cells with intracellular expression of NFκB ([1]; PMA stimulation, both CD43+ and CD43− Tregs, each time point, p<0.05) | IFNγ levels secreted into media ([2]; Day 1, p<0.01) | levels of IL-10 secreted into media ([2]; Day 1 and Day 2, p<0.05) | levels of TNFα secreted into media ([2]; Day 1 and Day 2, p<0.05) | effect on NFκB Tregs ([1]; 10 mM Sia added to PMA-stimulated Tregs, after 2 days)
1 | CCCCCCCCCCCCCC(=O)O[C@@H]1[C@@H](C)[C@@]2(O)[C@@H](C=C(CO)C[C@]3(O)C(=O)C(C)=C[C@@H]23)[C@@H]2C(C)(C)[C@]12OC(C)=O [PMA, phorbol 12-myristate 13-acetate] | reduced; also recorded: reduction | increased | increased | significantly higher | significantly increased | significantly increased | –
2 | CC(=O)N[C@H]1[C@H]([C@H](O)[C@H](O)CO)OC(O)(C(=O)O)C[C@@H]1O (stereo partly shown) [Sia, sialic acid] | – | – | – | – | – | – | no significant effect
